Data reported in patent publication US10759826B2, “15β-substituted estrone derivatives as selective inhibitors of 17β-hydroxysteroid-dehydrogenases, method of preparation and use thereof” (USTAV ORGANICKE CHEMIE A BIOCHEMIE AV CR, V.V.I., priority 2016, dated 2020).

Columns and labels:
SK-OV-3 = test: 7 day proliferation assay, SK-OV-3; format: cell-based; conditions: 1 μmol·l^−1, 7 days
Description: (§1) In this study, T47D cells were propagated in RPMI 1640 medium supplemented with 10% fetal bovine serum, 2 mmol^·l^−1 glutaMAX (Thermo Fisher Scientific, MA, USA), and penicillin/streptomycin (Thermo Fisher Scientific, Waltham, USA) and incubated in a 5% CO2-humidified atmosphere at 37° C. to the amount needed for the experiment. Two days prior to testing of compounds, growth medium was changed to medium without phenol red, supplemented with 2 mmol^·l^−1 Glutamax and 4% FBS depleted of lipophilic components (including the endogenous estrogenic substances) (Hyclone, GE Healthcare Life Sciences, USA). Two days after the medium replacement, the cells were harvested, counted and resuspended in a medium. Cells were dispensed with liquid dispenser Multidrop (Thermo Fisher Scientific, Waltham, USA), to the cell culture treated, 12-well plates (Corning Inc., NY, USA) at 100 000 cells/well in 1 mL of total media volume. […] After 7 days of cell cultivation with compounds, cells were harvested and counted. […]
(§2) Compounds 9 and 12 were tested in the proliferation assay with cell lines derived from the triple negative breast cancer (MDA-MB-231), AR-negative prostate cancer (PC3, DU145) and ovarian cancer (SK-OV-3, CaoV-3). […] At the end of the treatment, cells were harvested and counted. […]

[1] = target: T1, estrogen receptor α (ERα) (Homo sapiens, UniProt P03372); test: ERα luciferase reporter assay in U2OS cells; format: cell-based; conditions: for Emax: U2OS, read-out: efficacy of ERα activation, % of the maximal effect produced by E2; for EC50: agonist mode, U2OS reporter, 24 h; for IC50: antagonist mode, 1 nmol·l^−1 E2
T1 construct: expressed in transfected cells
T1 sequence (P03372 1-595): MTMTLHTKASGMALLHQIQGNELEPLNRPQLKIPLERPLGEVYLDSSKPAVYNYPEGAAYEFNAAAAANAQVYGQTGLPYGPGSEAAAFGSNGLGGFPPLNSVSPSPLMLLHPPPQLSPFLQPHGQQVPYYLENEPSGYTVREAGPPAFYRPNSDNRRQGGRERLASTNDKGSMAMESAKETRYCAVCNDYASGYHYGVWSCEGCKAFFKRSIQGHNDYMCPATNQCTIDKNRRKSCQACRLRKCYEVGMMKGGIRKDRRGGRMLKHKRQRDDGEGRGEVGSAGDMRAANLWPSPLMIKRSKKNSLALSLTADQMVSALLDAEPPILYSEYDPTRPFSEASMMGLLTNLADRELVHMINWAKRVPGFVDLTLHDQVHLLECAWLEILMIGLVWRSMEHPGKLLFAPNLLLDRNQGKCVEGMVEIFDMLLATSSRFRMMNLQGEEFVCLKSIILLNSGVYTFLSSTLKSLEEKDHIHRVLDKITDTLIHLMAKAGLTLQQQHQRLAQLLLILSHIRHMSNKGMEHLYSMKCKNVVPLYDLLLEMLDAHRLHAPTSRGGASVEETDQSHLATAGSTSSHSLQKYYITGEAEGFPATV

human 17βHSD type 5 = target: T2, human 17βHSD type 5 (Homo sapiens, UniProt P42330); test: Inhibition of recombinant 17βHSD type 5, tritium-labeled substrate conversion; format: biochemical; conditions: 1 μmol · l^−1 test substance
T2 construct: made in house; host or cells: bacteria (Escherichia coli); supernatant of the lysate
T2 sequence (P42330 1-323): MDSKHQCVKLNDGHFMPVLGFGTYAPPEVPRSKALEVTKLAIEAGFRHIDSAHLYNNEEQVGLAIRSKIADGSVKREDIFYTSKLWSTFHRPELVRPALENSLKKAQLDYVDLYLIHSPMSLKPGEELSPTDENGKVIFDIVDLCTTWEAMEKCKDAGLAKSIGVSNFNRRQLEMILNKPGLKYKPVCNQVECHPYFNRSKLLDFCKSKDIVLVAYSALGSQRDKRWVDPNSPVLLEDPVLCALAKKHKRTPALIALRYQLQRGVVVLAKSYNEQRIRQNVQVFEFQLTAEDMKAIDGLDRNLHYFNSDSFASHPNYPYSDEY
Description: The inhibitory activity of the test substances was determined for individual isoenzymes from the 17βHSD family, specifically these were the types 1, 2, 3, 4, 5 and 7. Escherichia coli and mammalian cells expression systems were used for recombinant expression of individual isozymes of human 17βHSD. Only in the case of 17HSD5 the enzyme was partially purified and supernatant obtained by centrifugation of the bacterial lysate was used for testing. Systems expressing specific 17βHSD type were suspended in a reaction buffer and incubated with tritium-labeled substrates and respective cofactors at 37° C. in two parallel tests: the control arrangement (DMSO without the inhibitor) and the test arrangement (DMSO with the inhibitor). DMSO serves as a negative control in this case. After 20-30% of the substrate was converted by the activity of the enzyme to the product in a control test, both tests were terminated. Substrate and product from the test arrangement were isolated by SPE (solid phase extraction), and then separated by reverse phase HPLC. Substrate conversion was determined by integration of the signals of the substrate and product, and was expressed in %. For the purposes of the subsequent calculation of enzyme inhibition, the conversion of the control test was designated as 0% inhibition. All tests were performed in triplicates. IC50 values were subsequently determined by a standard method using the “One Ligand Binding” model of SigmaPlot kinetics module (Schustera et. al. J. Ster. Biochem. Mol. Biol. 2011, 125, 148; Möller et. al. Biioorg. Med. Chem. Lett. 2009, 19, 6740; Möller et. al. PLoS One, 2010, 5, 6, e10969).

U2OS cells = test: Cell viability (ATP) of unmodified U2OS cells, parallel to reporter assay; format: cell-based, human; conditions: Homo sapiens
Description: To separate the antagonist activity of test compounds from the cytotoxic effect on U2OS cells (cell line derived from osteosarcoma), an experiment for determination of cell viability was performed in parallel with the reporter assay. Original, genetically unmodified U2OS cells were grown under the same conditions as the reporter cells. These cells were further treated and incubated with the compounds in a completely identical manner and for the same time as cells in the reporter assay. At the end of the experiment, the amount of ATP was determined using BriteLite luciferase homogeneous assay as a measure of cell viability. The data were then processed together with data from the reporter assays.

MDA-MB-231 = test: 7 day proliferation assay, MDA-MB-231; format: cell-based; conditions: 1 μmol·l^−1, 7 days
Description: as §1, §2

DU145 = test: 7 day proliferation assay, DU145; format: cell-based; conditions: 1 μmol·l^−1, 7 days
Description: as §1, §2

Row | Structure (SMILES) | % of survived cells compared to untreated samples, SK-OV-3 (SK-OV-3) [%] | Emax [1] [%] | EC50 [1] [µM] | IC50 [1] [µM] | % of inhibition of human 17βHSD5 (human 17βHSD type 5) [%] | IC50 (U2OS cells) [µM] | % of survived cells compared to untreated samples, MDA-MB-231 (MDA-MB-231) [%] | % of survived cells compared to untreated samples, DU145 (DU145) [%] | ER antagonism in words ([1]; testing range 10 μmol·l^−1 to 1 nmol·l^−1)
1 | COc1ccc(CC[C@@H]2CC(=O)[C@@]3(C)CC[C@@H]4c5ccc(O)cc5CC[C@H]4[C@H]23)cc1 [Compound 9, 3-Hydroxy-15β-(4-methoxyphenethyl)-estra-1,3,5 (10)-trien-17-one] | 113 | < 40 | > 10 | 23.5 | 91 | > 100 | 106 | 98 | 
2 | CCOc1ccc(CC[C@@H]2CC(=O)[C@@]3(C)CC[C@@H]4c5ccc(O)cc5CC[C@H]4[C@H]23)cc1 [Compound 12, 15β-(4-Ethoxyphenethyl)-3-hydroxy-estra-1,3,5(10)-trien-17-one] | 97 | < 40 | > 10 | 29 | 80 | > 100 | 98 | 86 | antagonists of both types of receptors
